Laboratory results taken from PMC6919601, “Identification of Plasmodium dipeptidyl aminopeptidase allosteric inhibitors by high throughput screening” (PLoS ONE, 2019).

Molecular target: T1, DPAP1 (Plasmodium falciparum, UniProt Q8IIJ9)
T1 sequence (Q8IIJ9 370-599 limits assumed): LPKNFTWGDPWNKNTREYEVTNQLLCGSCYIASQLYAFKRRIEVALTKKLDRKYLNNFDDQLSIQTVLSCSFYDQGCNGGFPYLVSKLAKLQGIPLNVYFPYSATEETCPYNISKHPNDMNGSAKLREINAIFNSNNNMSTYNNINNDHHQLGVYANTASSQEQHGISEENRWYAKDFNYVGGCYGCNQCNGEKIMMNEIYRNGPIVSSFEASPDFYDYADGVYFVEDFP
T1 sequence (Q8IIJ9 28-209 limits assumed): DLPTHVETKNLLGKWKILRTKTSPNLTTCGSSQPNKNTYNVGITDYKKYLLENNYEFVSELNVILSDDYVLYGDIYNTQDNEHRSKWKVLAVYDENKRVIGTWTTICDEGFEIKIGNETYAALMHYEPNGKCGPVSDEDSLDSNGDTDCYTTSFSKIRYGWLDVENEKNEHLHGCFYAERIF
T1 sequence (Q8IIJ9 600-700 limits assumed): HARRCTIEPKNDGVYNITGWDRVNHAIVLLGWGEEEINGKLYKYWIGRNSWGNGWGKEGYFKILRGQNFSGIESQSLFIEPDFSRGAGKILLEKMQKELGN
Experiment: biochemical
Format: biochemical
Conditions: for DPAP Primary hit (Hit = 1): 10 μM HTS, 0 not defined; for inhibition at 10 µM: 10 μM compound, parasite lysates, (PR)2Rho, 30 min end-point, read-out: DPAP1 % Inhibition @ 10 uM

| SMILES | DPAP Primary hit (Hit = 1) | inhibition at 10 µM |
| --- | --- | --- |
| N#CC1=C2SCN(Cc3ccco3)CN2C(=O)CC1c1ccc(Cl)cc1 (centres unmarked) [SMDC170081, Clc1ccc(cc1)C2CC(=O)N3CN(Cc4occc4)CSC3=C2C#N] | 0 | 42% |
| COc1ccc(OC)c(C2CC(=O)N3CN(C4CCCCC4)CSC3=C2C#N)c1 (centres unmarked) [SMDC170143, COc1ccc(OC)c(c1)C2CC(=O)N3CN(CSC3=C2C#N)C4CCCCC4] | 0 | 10% |
| CCOc1ccc(C2CC(=O)N3CN(CCc4ccccc4)CSC3=C2C#N)cc1 (centres unmarked) [SMDC178842, CCOc1ccc(cc1)C2CC(=O)N3CN(CCc4ccccc4)CSC3=C2C#N] | 1 | 71% |
| COc1ccc(Br)cc1C1CC(=O)N2CN(C)CSC2=C1C#N (centres unmarked) [SMDC170145, COc1ccc(Br)cc1C2CC(=O)N3CN(C)CSC3=C2C#N] | 1 | 59% |
| COc1ccc(C2CC(=O)N3CN(Cc4cccnc4)CSC3=C2C#N)cc1 (centres unmarked) [SMDC178811, COc1ccc(cc1)C2CC(=O)N3CN(Cc4cccnc4)CSC3=C2C#N] | 0 | 46% |
| COc1ccc(CN2CSC3=C(C#N)C(c4cccs4)CC(=O)N3C2)cc1 (centres unmarked) [SMDC178823, COc1ccc(CN2CSC3=C(C#N)C(CC(=O)N3C2)c4cccs4)cc1] | 1 | 51% |
| COc1ccc(CN2CSC3=C(C#N)C(c4ccc(C)cc4)CC(=O)N3C2)cc1 (centres unmarked) [SMDC178810, COc1ccc(CN2CSC3=C(C#N)C(CC(=O)N3C2)c4ccc(C)cc4)cc1] | 0 | 44% |
| COc1ccc(Br)cc1C1CC(=O)N2CN(C3CCCCC3)CSC2=C1C#N (centres unmarked) [SMDC170135, COc1ccc(Br)cc1C2CC(=O)N3CN(CSC3=C2C#N)C4CCCCC4] | 1 | 60% |

The remaining lines, values ahead:

| DPAP Primary hit (Hit = 1) | inhibition at 10 µM | SMILES |
| --- | --- | --- |
| 0 | 19% | COc1cccc(C2CC(=O)N3CN(Cc4ccco4)CSC3=C2C#N)c1OC (centres unmarked) [SMDC170134, COc1cccc(C2CC(=O)N3CN(Cc4occc4)CSC3=C2C#N)c1OC] |
| – | 3.66% | CC[C@H](C)[C@H](NC(=O)OC(C)(C)C)C(=O)N[C@@H](CCc1ccccc1)C(=O)CCS(=O)(=O)c1ccccc1 [SMDC279745, CC[C@H](C)[C@H](NC(=O)OC(C)(C)C)C(=O)N[C@@H](CCc1ccccc1)C(=O)CCS(=O)(=O)c2ccccc2] |
| – | 8% | CC[C@H](C)[C@H](NC(=O)c1cccc(CN)c1)C(=O)N[C@@H](CCc1ccccc1)C(=O)COC [SMDC279824, CC[C@H](C)[C@H](NC(=O)c1cccc(CN)c1)C(=O)N[C@@H](CCc2ccccc2)C(=O)COC] |
| 0 | 18% | COc1cc(C2CC(=O)N3CN(Cc4ccco4)CSC3=C2C#N)ccc1O (centres unmarked) [SMDC170153, COc1cc(ccc1O)C2CC(=O)N3CN(Cc4occc4)CSC3=C2C#N] |
| 0 | 31% | Cc1ccccc1C1CC(=O)N2CN(Cc3ccccc3)CSC2=C1C#N (centres unmarked) [SMDC170122, Cc1ccccc1C2CC(=O)N3CN(Cc4ccccc4)CSC3=C2C#N] |
| 0 | 31% | COc1ccc2ccccc2c1C1CC(=O)N2CN(Cc3ccco3)CSC2=C1C#N (centres unmarked) [SMDC170165, COc1ccc2ccccc2c1C3CC(=O)N4CN(Cc5occc5)CSC4=C3C#N] |
| 0 | 46% | N#CC1=C2SCN(Cc3ccco3)CN2C(=O)CC1c1cccc2ccccc12 (centres unmarked) [SMDC170176, O=C1CC(C(=C2SCN(Cc3occc3)CN12)C#N)c4cccc5ccccc45] |
| 1 | 52% | N#CC1=C2SCN(Cc3ccccc3)CN2C(=O)CC1c1cccc2ccccc12 (centres unmarked) [SMDC170166, O=C1CC(C(=C2SCN(Cc3ccccc3)CN12)C#N)c4cccc5ccccc45] |
| 1 | 73% | CC(c1ccccc1)N1CSC2=C(C#N)C(c3ccc(Cl)cc3)CC(=O)N2C1 (centres unmarked) [SMDC178781, CC(N1CSC2=C(C#N)C(CC(=O)N2C1)c3ccc(Cl)cc3)c4ccccc4] |
